Molecular target: T1, Signal transducer and activator of transcription 3 [702-738,740-752] (Homo sapiens, UniProt P40763)
T1 construct: 702-738,740-752
Experiment: STAT3 activation reporter response, dose response, cell-based (AID 1398)

T1 sequence (P40763 as listed by the source): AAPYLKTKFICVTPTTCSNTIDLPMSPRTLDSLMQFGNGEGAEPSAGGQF

| SMILES | IC50 [nM] |
| --- | --- |
| Cn1nc(-c2ccc(Cl)cc2)c2cc(C(=O)NCCCN3CCCC3)sc21 [3-(4-chlorophenyl)-1-methyl-N-(3-pyrrolidin-1-ylpropyl)thieno[2,3-c]pyrazole-5-carboxamide] | > 6190 |
| Cn1c(CNc2ccccc2O)nc2ccccc21 [2-[(1-methyl-2-benzimidazolyl)methylamino]phenol] | > 8.49 |
| COc1cc(NC(=O)c2cc(C3CC3)on2)c(OC)cc1Cl [MLS000522376] | > 76 |
| COc1cc(NC(=O)c2cc(C(C)C)on2)c(OC)cc1Cl [MLS000520019] | > 229 |
| Nc1nc(-c2ccc(Cl)cc2)nn1C(=O)c1cccs1 [MLS000706198] | > 688 |
| Cc1cccc(NC(=O)c2cc([N+](=O)[O-])ccc2Cl)c1O [2-chloranyl-N-(3-methyl-2-oxidanyl-phenyl)-5-nitro-benzamide] | > 6190 |
| COc1ccccc1NC(=O)c1[nH]c(C)c(C(C)=O)c1C [SMR000066913] | > 25.5 |
| CC(=O)Nc1c(Cl)n(C(C)=O)c2ccccc12 [MLS000104263] | > 76 |
| CCCSc1nnc(Sc2nnnn2-c2ccccc2)s1 [2-(1-phenyltetrazol-5-yl)sulfanyl-5-propylsulfanyl-1,3,4-thiadiazole] | > 6190 |
| COc1ccccc1C(=O)Nc1cc(Cl)ccc1O [MLS000078111] | > 2060 |
| COC(=O)c1sccc1NC(=O)c1cc2c(s1)CCCC2 [MLS000051746] | > 2060 |
| COC(=O)C(NC=O)C(O)(Cc1ccccc1)C(F)(F)F (stereo not given) [3-benzyl-4,4,4-trifluoro-2-formamido-3-hydroxy-butyric acid methyl ester] | > 688 |
| Cc1[nH]n(-c2ccccc2)c(=O)c1C=C1C(=O)NC(=O)NC1=O | > 55700 |
| CCCc1cc(C(=O)Nc2cc(OC)c(Cl)cc2OC)no1 [MLS000116379] | > 229 |
| Cc1nonc1CC(=O)N1CCc2c([nH]c3ccccc23)C1c1ccccc1F (stereo not given) [1-[1-(2-fluorophenyl)-1,3,4,9-tetrahydropyrido[3,4-b]indol-2-yl]-2-(4-methyl-1,2,5-oxadiazol-3-yl)ethanone] | > 2060 |

— BindingDB's records for doi:10.7270/Q2S46QBK (The Scripps Research Institute Molecular Screening Center, 2008)
